According to patent US11453674B2, “Heterocyclic compound, preparation method and use thereof in medicine” (SUZHOU SINOVENT PHARMACEUTICALS CO., LTD., priority 2019, dated 2022):

Biological target: T1, OAT1 (Homo sapiens, UniProt Q4U2R8)
T1 construct: host or cells: HEK293/OAT1 (hygromycin B selection)
T1 sequence (Q4U2R8 1-563): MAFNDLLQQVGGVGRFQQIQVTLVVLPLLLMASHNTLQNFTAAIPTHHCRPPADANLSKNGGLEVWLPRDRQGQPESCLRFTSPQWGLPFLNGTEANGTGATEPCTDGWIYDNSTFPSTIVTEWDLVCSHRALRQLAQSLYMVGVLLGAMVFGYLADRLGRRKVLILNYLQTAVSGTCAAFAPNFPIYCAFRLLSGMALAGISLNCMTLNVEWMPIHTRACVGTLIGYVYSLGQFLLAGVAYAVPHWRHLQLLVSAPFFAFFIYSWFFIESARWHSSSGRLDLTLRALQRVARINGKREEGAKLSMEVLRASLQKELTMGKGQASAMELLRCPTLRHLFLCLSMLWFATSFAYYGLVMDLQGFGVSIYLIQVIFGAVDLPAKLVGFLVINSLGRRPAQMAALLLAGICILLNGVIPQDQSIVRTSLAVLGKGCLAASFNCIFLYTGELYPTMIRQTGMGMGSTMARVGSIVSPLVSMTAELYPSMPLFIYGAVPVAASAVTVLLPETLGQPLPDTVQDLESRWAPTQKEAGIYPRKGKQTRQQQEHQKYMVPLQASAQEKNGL
Assay: Inhibition of 6-carboxyfluorescein uptake in HEK293/OAT1 cells
Format: cell-based
Details: ratio of OAT1 IC50 to hURAT1 IC50 (selectivity)
Procedure: 1. Reagents and Consumables
2. Culture Media and Solutions
Thaw medium: 90% DMEM+10% FBS+1× Pen/Strep, preserved at 4° C. for later use.
Culture medium: 90% DMEM+10% FBS+1× Pen/Strep+100 μg/mL Hygromycin B, preserved at 4° C. for later use.
5× Matrigel: 1 vial of Matrigel was thawed overnight at 4° C., then diluted to 500 mL with cold DMEM. The resulting solution was preserved at 4° C. for later use after subpackaging.
Uptake assay buffer: 487.5 mL HBSS buffer was mixed with 12.5 mL 1M HEPES, with the final HEPES concentration being 25 mM. This was prepared right before the experiment.
30 mM probenecid: 2 mg of the powder was dissolved in 233.62 μL of 100% DMSO. The resulting solution was preserved at −20° C. for later use after subpackaging.
The resulting solution was preserved at −20° C. for later use after subpackaging.
The resulting solution was preserved away from light at 4° C. for later use after subpackaging.
Envision multimode plate reader (with parameters as follows)
Emission wavelength: 590 nm
4. Experimental Procedures
The cells were quickly taken out from a liquid nitrogen tank and shaken in a water bath at 37° C. until completely thawed. The cell suspension was quickly added to a pre-heated culture medium and centrifuged at 1000 rpm for 5 min. The supernatant was discarded. A fresh pre-heated culture medium was added for resuspension. The cell suspension was transferred into a 100 mm dish and incubated at 37° C. at 5% CO2.
Typically, the cells were passaged every 2-3 days in a ratio of 1:3 to 1:5.
5× Matrigel was added to a 384-well cell plate at 5 μL/well for incubation in an incubator at 37° C. for 30 min, followed by digestion.
Cells were collected after digestion, counted, resuspended at 1×10^6 cells/mL using a culture medium, and added to a coated plate at 60 μL/well by using a Multidrop Combi to give a cell density of 6×10^4 cells/well, followed by incubating overnight at 37° C. at 5% CO2.
3) Preparation of Uptake Assay Buffer
On the day of experiment, fresh buffer was prepared as needed.
4) Preparation of Compounds (Using ECHO)
Working solutions of 11 concentrations were prepared for plotting a curve with stock solutions of 3 concentrations using PlateMap. The 3 concentrations were 30 mM, 0.3 mM, 0.003 mM, all formulated in DMSO.
5) Preparation of a Mixed Solution of 6-Carboxyfluorescein (6 μM) and Compounds
According to amount used, 6-carboxyfluorescein (1 mM) was diluted with uptake assay buffer to give a diluted 6-carboxyfluorescein solution (6 μM). […] The mixture was preserved away from light for later use. The concentration of DMSO was 2% at this time.
The cells were incubated overnight before the culture medium was carefully removed. Then 80 μL of uptake assay buffer was added to each well at room temperature for washing the cells 3 times. After washing, 20 μL of uptake assay buffer was added to each well.
The mixed solution of 6-CF (6 μM) and compounds, prepared in step 5, was transferred to a cell plate at 20 μL/well with Bravo. The mixed solution was centrifuged at 400 rpm for 1 min, and incubated away from light at room temperature for 10 min. At this time, the concentration of 6-CF became 3 μM, the concentration of the compound became the final concentration, and the concentration of DMSO became 1%.
The cells were washed 3 times with pre-cooled uptake assay buffer at 80 μL/well, to remove unbound 6-CF.
The plate was read on the Envision. The data were recorded and processed to calculate IC50.
According to the fluorescence signals of HPE and ZPE on each cell plate, the inhibition rate (%) of the compound in each well on the cell plate was calculated.
The XLfit software was used to plot the curve for calculating the IC50 values of the compounds. The IC50 value of the positive compound was also one of the criteria for controlling the quality of each experiment.

SMILES | IC50, OAT1/IC50, hURAT1
CCc1nc2ncc(F)cn2c1C(=O)c1cc(Br)c(O)c(Br)c1 [Example 4, (3,5-dibromo-4-hydroxyphenyl)(2-ethyl-6-fluoroimidazo[1,2-a]pyrimidin-3-yl)methanone] | 55.0
CCc1nc2cc(C(F)(F)F)ncn2c1C(=O)c1cc(Br)c(O)c(Br)c1 [Example 7, (3,5-dibromo-4-hydroxyphenyl)(2-ethyl-7-(trifluoromethyl)imidazo[1,2-c]pyrimidin-3-yl)methanone] | 14.2
CCn1nc2ccc(F)cc2c1C(=O)c1cc(Br)c(O)c(Br)c1 [Example 9, (3,5-dibromo-4-hydroxyphenyl)(2-ethyl-5-fluoro-2H-indazol-3-yl) methanone] | 7.6
CCc1nc2ncc(F)cn2c1C(=O)c1cc(Br)c(O)c(C#N)c1 [Example 14, 3-bromo-5-(2-ethyl-6-fluoroimidazo[1,2-a]pyrimidine-3-carbonyl)-2-hydroxybenzonitrile] | 3.5
CCn1nc2ccncc2c1C(=O)c1cc(Br)c(O)c(Br)c1 [Example 16, (3,5-dibromo-4-hydroxyphenyl)(2-ethyl-2H-pyrazolo[4,3-c]pyridin-3-yl)methanone] | 17.4
CCc1nc2ncc(F)cn2c1C(=O)c1cc(Br)c(O)c(C(F)(F)F)c1 [Example 18, (3-bromo-4-hydroxy-5-(trifluoromethyl)phenyl)(2-ethyl-6-fluoroimidazo[1,2-a]pyrimidin-3-yl)methanone] | 24.5
CCc1nc2cc(Cl)ncn2c1C(=O)c1cc(Br)c(O)c(Br)c1 [Example 21, (7-chloro-2-ethylimidazo[1,2-f]pyrimidin-3-yl)(3,5-dibromo-4-hydroxyphenyl)methanone] | 3.8
CCc1nc2ncccn2c1C(=O)c1cc(Br)c(O)c(C#N)c1 [Example 22, 3-bromo-5-(2-ethylimidazo[1,2-a]pyrimidine-3-carbonyl)-2-hydroxybenzonitrile] | 2.0

Results, then the compound that gave them:

IC50, OAT1/IC50, hURAT1 | SMILES
13.8 | CCc1nc2ncc(Br)cn2c1C(=O)c1cc(Br)c(O)c(Br)c1 [Example 3, (6-bromo-2-ethylimidazo[1,2-a]pyrimidin-3-yl)(3,5-dibromo-4-hydroxyphenyl)methanone]
34.4 | CCc1nc2ncc(C(F)(F)F)cn2c1C(=O)c1cc(Br)c(O)c(Br)c1 [Example 5, (3,5-dibromo-4-hydroxyphenyl)(2-ethyl-6-(trifluoromethyl)imidazo[1,2-a]pyrimidin-3-yl)methanone]
33.6 | CCc1nc2ncc(Cl)cn2c1C(=O)c1cc(Br)c(O)c(Br)c1 [Example 6, (6-chloro-2-ethylimidazo[1,2-a]pyrimidin-3-yl)(3,5-dibromo-4-hydroxyphenyl)methanone]
8.0 | CCc1nc2ncccn2c1C(=O)c1cc(Br)c(O)c(Br)c1 [Example 20, 2,6-dibromo-4-([2-ethylimidazo[1,2-a]pyrimidin-3-yl]carbonyl) phenol]
5.2 | CCc1nc2ncccn2c1C(=O)c1cc(Br)c(O)c(C(F)(F)F)c1 [Example 23, (3-bromo-4-hydroxy-5-(trifluoromethyl)phenyl)(2-ethylimidazo[1,2-a]pyrimidin-3-yl)methanone]
